We go through two compounds from patent US20110294803A1, “PHOSPHATIDYLINOSITOL-3-KINASE P110 DELTA-TARGETED DRUGS IN THE TREATMENT OF CNS DISORDERS” (priority 2008, published 2011).

Data set [1] deals with COMT*dysbindin double knockout mice. In words: Amphetamine-induced stereotypy in a genetic mouse model of schizophrenia. In kind it is in vivo. The conditions noted are these: IC87114 0.1 mg/kg i.p. pretreatment, D-amphetamine 1.5 mg/kg i.p. An excerpt:
Subjects. All procedures were approved by the NIMH Animal Care and Use Committee and followed the NIH Guidelines “Using Animals in Intramural Research.” To derive the double knockout mice, the lines of COMT knockout mice and dysbindin knockout mice previously described were used. COMT*dysbindin double knockout mice (COMT−/− dys−/−) were littermates and bred by double heterozygote mating (dCOMT+/−dys+/− with cCOMT+/−dys+/−). Mice were identified by PCR analysis of tail DNA. Mice were group-housed (2-4/cage) in a climate-controlled animal facility (22±2° C.) and maintained on a 12-hr light/dark cycle, with free access to food and water. Testing was conducted in male mice, 7 months old, during the light phase. Experimenters were blind to the genotype during behavioral testing. Mice were handled by the experimenter on alternate days during the week preceding the tests. At least one hour before any test manipulation, mice were habituated in a room adjacent to the testing room.
Stereotypy behavior with IC87114 and Amphetamine Treatment. […] Stereotypy was scored from videotapes by an observer blind to the treatments and genotype conditions of each mouse. […]
Statistical analysis. Results were expressed as mean±standard error of the mean (S.E.M.) throughout. […]

Data set [2] in a line: Passive blood-brain barrier permeability analysis by partitioning (Analiza). In kind it is physicochemical. As for the experimental part: For compounds to be clinically useful to treat CNS disorders, they should penetrate the blood-brain barrier (BBB). […] The degree of BBB penetration is measured as the ratio of the steady-state concentrations of the drug in the brain and in the blood, expressed as log(Cbrain/Cblood) or log BB. Compounds with logBB>0.3 (i.e. Cbrain/Cblood>2.0) cross the BBB readily. From these studies, IC87114 represents one of these compounds.
BBB analysis was performed using Analiza assays: Based upon a method described previously, a combination of two descriptors representing the lipophilicity (as measured by octanol-buffer partitioning, logD7.4) and relative hydrophobicity (as measured by aqueous two-phase partitioning (ATPPS), N(CH2)) of organic compounds was used to determine if that compound will permeate the blood-brain barrier.
Sample Preparation: One sample was received as 10 mM stock solutions in Dimethyl sulfoxide (DMSO) frozen on dry ice in a microtube. […]
Partitioning Experiments: Partitioning in an aqueous dextran-polyethylene glycol (Dex-PEG) two-phase system containing 0.15M NaCl in 0.01M sodium phosphate buffer at pH 7.4 was performed with an Automated Signature Workstation (Analiza, Inc. Cleveland, Ohio). […] Relative Hydrophobicity (N(CH2)) is then calculated from this partition coefficient. […] Relative Hydrophobicity (N(CH2) is then calculated from this partition coefficient. […]

Data set [3] deals with C57BL/6J mice. Briefly: Amphetamine-induced locomotor activity in open field, normal mice. It is filed as in vivo, mouse. The conditions noted are these: IC87114 0.1 mg/kg i.p. pretreatment; D-amphetamine 0.75 or 1.5 mg/kg i.p.; male C57BL/6J mice. As for the experimental part:
(§1) Subjects. C57BL/6J mice were purchased from The Jackson Laboratory at 8 weeks old. All mice were group-housed (4/cage) in a climate-controlled animal facility (22±2° C.) and maintained on a 12-hr light/dark cycle, with free access to food and water. Testing was conducted in male mice, at ages 2-3 months, during the light phase of the circadian cycle. Mice were handled by the experimenter on alternate days during the week preceding the tests. At least one hour before any test manipulation, mice were habituated in a room adjacent to the testing room.
On day 3, mice were tested in the same experimental apparatus and conditions as on day 1. […] During the first 10-minute session mice were placed in the same empty open field as day 1. Immediately after, mice were removed from the field and given an injection of D-amphetamine sulphate (either 0.75 mg/kg or 1.5 mg/kg, i.p., Sigma-Aldrich, St. Louis, Mo., USA). They were then placed back in the same open field and allowed to explore for an additional 75 minutes. Amphetamine was dissolved in physiological saline and injected in a volume of 10 ml/kg.
Statistical analysis. Results were expressed as mean±standard error of the mean (S.E.M.) throughout. Student T-test, Two- or Three-Way analysis of variance (ANOVA) was used. Post-hoc analyses for individual group comparisons employed Newman-Keuls analyses.

The test system of data set [4] is C57BL/6J mice. In words: Baseline locomotor activity in open field. It is filed as in vivo, mouse. To be noted: IC87114 0.1 mg/kg i.p., male C57BL/6J mice, no amphetamine. The procedure: as §1
Mice were tested on day 1 in an experimental apparatus consisting of four Plexiglas Digiscan automated open fields (Accuscan; 42×42×30 cm dimensions). One red light (5±2 lux) was placed overhead, evenly illuminating each open field. Each apparatus contained photobeam sensors to measure the exploratory and locomotor activity of the mice. During the first 10-minute session, mice were placed in the empty open field and allowed to explore the arena. […] They were then place back in the same open field for an additional 75 minutes. All sessions were videotaped. […] “Vehicle-treated” mice were injected with the same volume of 0.25% DMSO in saline physiological saline.
Statistical analysis. Results were expressed as mean±standard error of the mean (S.E.M.) throughout. Student T-test, Two- or Three-Way analysis of variance (ANOVA) was used. […]

In data set [5] the test system is Human B-lymphoblast cells (LCLs). Briefly: NRG1-induced lymphocyte (LCL) migration, Transwell assay. It is filed as cell-based. To be noted: 0.1 uM, 60 min preincubation; LCLs of normal individuals and patients with schizophrenia; NRG-1 200 ng/ml, 4 hours. As for the experimental part: The cellular phenotype is migration of lymphocytes to the chemoattractant, Neuregulin (NRG1), a key regulator of brain development. NRG1 induced LCL migration is diminished in patients with schizophrenia.
Human B-lymphoblast cells were cultured in RPMI 1640 without L-Glutamine medium (Quality Biological, Inc.) supplemented with 15% fetal bovine serum (FBS), 1% Penicillin-streptomycin, and 2% L-Glutamine in a 5% CO2 incubator at 37° C. Prior to performing migration assay, cells were incubated for 16-18 hours in the same culture, lowering the concentration of FBS to 2%. […] Following incubations, cells were seeded into the top chamber of the HTS […] Transwell®-96 Cell Migration plate (Corning) at 4×10^5 cell/well concentration in a 50 μl volume. NRG-1 serum free RPMI solution with antibiotics and L-Glutamine supplements (NRG-1 200 ng/ml; 160 μl) was added to the bottom chamber and incubated for 4 hours at 37° C. 75 μl of the bottom chamber fraction was collected and combined with 25 μl of cyquant/lysis buffer reagent (according to Invitrogen protocol) for 15 min at RT and in the dark, and then read with a Wallac 1420 VICTOR3 multilabel plate reader under standard fluorescein (485 nm/535 nm, 1.0 s) protocol.

Data set [6] relates to ErbB4 mRNA. Briefly: ErbB4 mRNA expression in hippocampus of rats treated chronically with haloperidol. The conditions noted are these: haloperidol 0.08 or 0.6 mg/kg/day i.p. once daily for 28 days. In kind it is in vivo, rat. As for the experimental part: (§2) To explore this hypothesis, rats treated chronically with haloperidol, a standard antipsychotic drug, were tested for PIK3CD expression in the brain. Male Sprague-Dawley rats (weight 250 g) were on a 12-h light/dark cycle (lights on/off 0600 hours/1800 hours) in a temperature-controlled environment and with access to food and water. Rats were randomly assigned to drug treatment groups (8 per dose) and administered intraperitoneal injections of haloperidol (0.08 or 0.6 mg/kg/day) or vehicle (0.02% lactic acid) once daily for 28 days. Haloperidol (20 mg/ml) was prepared in 1% lactic acid, diluted with water, and neutralized with 1M NaOH to obtain pH 5.3. Rats were euthanized 7 h after the last injection. Brains were dissected and frozen at −80° C. PIK3CD, PIK3R3, ErbB4, and ErbB3 mRNA expression was determined in rat hippocampus using methods described above. Association of mRNA expression with haloperidol treatment was analyzed by ANOVA.

Data set [7] has as its system ErbB3 mRNA. Briefly: ErbB3 mRNA expression in hippocampus of rats treated chronically with haloperidol. It is filed as in vivo, rat. To be noted: haloperidol 0.08 or 0.6 mg/kg/day i.p. once daily for 28 days. The procedure:
as §2

Data set [8] has as its system PIK3CD mRNA. Briefly: PIK3CD mRNA expression in hippocampus of rats treated chronically with haloperidol. In kind it is in vivo, rat. The conditions noted are these: haloperidol 0.08 or 0.6 mg/kg/day i.p. once daily for 28 days, compared to untreated rats; F(2,22)=9.45, p=0.001. As for the experimental part:
as §2

In data set [9] the test system is PIK3R3 mRNA. In words: PIK3R3 mRNA expression in hippocampus of rats treated chronically with haloperidol. In kind it is in vivo, rat. The conditions noted are these: haloperidol 0.08 or 0.6 mg/kg/day i.p. once daily for 28 days. The procedure:
as §2

SMILES strings stand for the structures. Entries after “also recorded” stand apart in the source; their conditions may differ.

Consider `Cc1ccccc1-n1c(Cn2cnc3c(N)ncnc32)nc2cccc(C)c2c1=O` [IC87114], for which the amphetamine-induced stereotypy entry in data set [1] was “dramatically reduces amphetamine-induced stereotypy; also recorded: diminished”. In addition, the “logBB (log(Cbrain/Cblood))” value in data set [2] (calculated from partitioning data) was > 0.3. Also, the Kp in data set [2] (not told, calculated from log D (octanol-buffer, pH 7.4) and N(CH2) (aqueous two-phase partitioning), read-out: Cbrain/Cblood) was > 2. In addition, in [3], the “amphetamine-induced hyperlocomotion (distance traveled during 75 minutes)” value was “reduces amphetamine-induced hyperlocomotion; also recorded: reduces amphetamine induced locomotor abnormalities; also recorded: blocked the amphetamine-induced increase in locomotor activity”. For the same compound, the “baseline locomotor activity (distance traveled during 75 minutes)” value in data set [4] is reported as “no effect on baseline locomotor activity; also recorded: without affecting baseline behavior; also recorded: did not show any drug-treatment effect”. The “LCL migration in response to NRG-1 stimulation” value in data set [5] is “Rescues a Cellular Phenotype Related to Schizophrenia; also recorded: significantly improve LCL migration”.
Take `O=C(CCCN1CCC(O)(c2ccc(Cl)cc2)CC1)c1ccc(F)cc1` [haloperidol]: the “ErbB4 mRNA expression in rat hippocampus” value in data set [6] is “did not affect”. In addition, the “ErbB3 mRNA expression in rat hippocampus” value in [7] is “did not affect”. In [8], the “expression of PIK3CD mRNA in rat hippocampus” value is on record as “decreases expression of PIK3CD mRNA”. In addition, in data set [9], the “PIK3R3 mRNA expression in rat hippocampus” value was “did not affect”.
